Consider seven compounds from patent US12643861B2, “Crystalline form of fluvatinib or fluvatinib methanesulfonate and preparation method therefor” (CHONGQING PHARMACEUTICAL RESEARCH INSTITUTE CO., LTD, priority 2020, dated 2026).

Type in all cases: physicochemical
Data set [1] is described as follows: Stability under high temperature and high humidity for half of a month or 3 months.
A short description of data set [2]: Hydrothermal stability of the crystalline forms of fluvatinib mesylate, XRPD. Particulars: Table 11. Here is the method:
The crystalline forms I, III, IV, V, VI, and VII of fluvatinib mesylate of the present disclosure were placed in harsh environments to investigate their stability. They were placed under high temperature and high humidity conditions: 25° C. 92.5% R.H for 7 days, 40° C. 75% R.H for 14 days, and 60° C. for 14 days, and then detected by XRPD.

Data set [3] in a line: Crystalline form stability on tableting and storage of tablets, XRPD. Particulars: for crystal transformation during the process of preparing tablets: direct compression tablets, 30% crystalline form; for crystal transformation after the tablets being placed for 6 months: 40° C., 75% RH. Here is the method:
The formula amounts of the crystalline form of fluvatinib mesylate, anhydrous lactose and direct compression starch were mixed, and then mixed with magnesium stearate. The mixture was prepared into tablets by direct compression method, with each table weighed 200 mg.
The crystalline forms before and after being prepared into tablets and after the tablets being placed in 40° C., 75% RH environment for 6 months were detected by XRPD. The results are shown in FIGS. 19 and 20, wherein A, B, and C represent XRPD patterns of the crystalline form before and after being prepared into tablets and after the tablets being placed for 6 months.

Data set [4] can be described thus: Stability of crystalline form I of fluvatinib mesylate stirred in acetone, ethanol, ethyl acetate, XRPD. The conditions noted are these: acetone or ethyl acetate, stirred 10 h at room temperature. Here is the method: The crystalline form I of fluvatinib mesylate was stored in acetone, ethanol and ethyl acetate to investigate whether there was a crystal transformation.
3 parts of about 50 mg the crystalline form I of fluvatinib mesylate were weighed and respectively added to reaction flasks containing an appropriate amount of acetone, ethanol, or ethyl acetate solvent. The suspension samples were placed on magnetic stirrers, stirred for 10 h at room temperature, and filtered. The filter cake was dried at 40-50° C. with spinning under reduced pressure. The obtained dry samples were detected by XRPD.

Data set [5] is described as follows: Dynamic vapor sorption (DVS) hygroscopicity. Here is the method:
At the same time, the crystalline form I of fluvatinib mesylate was tested for dynamic hygroscopicity by DVS to detect water content. […] This indicates again that the crystalline form I of fluvatinib mesylate has good stability.
The crystalline form III of fluvatinib mesylate was tested for hygroscopicity under humidity conditions of 25° C., 0-90% RH, using a dynamic moisture tester a dynamic vapor sorption (DVS) analyzer.

Data set [6] can be described thus: Crystal transformation test of crystalline form I of fluvatinib stirred in solvents, XRPD. Particulars: 40° C. Here is the method:
The crystalline form I of fluvatinib was placed in an organic solvent and a water-containing organic solvent, and stirred at 40° C. for 2 days to investigate whether there was a crystal transformation.
A number parts of about 30 mg of the crystalline form I of fluvatinib (Form I) were respectively weighed and added to different glass bottles, and added with an appropriate amount of a single organic solvent or a mixture containing water (see Table 8) to form suspensions. The above-mentioned suspension samples were placed on magnetic stirrers (40° C.) to perform a stirring test. After being stirring at 40° C. for 2 days, the suspension samples were filtered. The filter cake samples were then dried overnight in a vacuum dry box (40° C.), and the dried samples were detected by XRPD (see Table 8 and FIG. 14).

Data set [7] is described as follows: Crystal transformation of fluvatinib mesylate crystalline forms stirred in ethanol, XRPD. Here is the method:
The crystalline form of the fluvatinib methanesulfonate was investigated on its stability in ethanol, to see whether there is crystal transformation.
About 0.15 g of the crystalline forms II (Form II), III (Form III), VI (Form VI) and VII (Form VII) of the fluvatinib mesylate were weighed and respectively added to reaction flasks containing ethanol, stirred magnetically for 2 days at room temperature, and filtered. The filter cakes were dried at 40-50° C. with spinning under reduced pressure. The obtained dried samples were detected by XRPD.

The nature of data set [8]: Solubility compared with lenvatinib. Particulars: method or value not given.
Data set [9] in a line: High temperature suspension experiment (50° C.) in organic solvents, XRPD. The conditions noted are these: 25 mg, 24 hours. Here is the method:
The crystalline form III of fluvatinib mesylate was subjected to high temperature suspension experiments (50° C.), to investigate whether the crystalline form III of fluvatinib mesylate undergoes crystal transformation in various type of common organic solvents, and whether it is stable. The crystalline form III of fluvatinib mesylate was suspended in 12 types of organic solvents (in 1 mL of solvent) and water as set forth in Table 10 at a temperature of 50° C. and an amount of about 25 mg for 24 hours. The solids after being suspended in the organic solvents were detected by XRPD.

Data set [10] can be described thus: Stability of crystalline form III of fluvatinib mesylate in air (oxygen gas), oxidation. The conditions noted are these: exposed to air. The text has this: To investigate the stability of the crystalline form III of fluvatinib mesylate (Form III), Form III was exposed to air and contacted with oxygen.
Where [11] appears, read: listed as crystalline forms of fluvatinib.
Setting [12] is: ethanol, stirred 2 days at room temperature.
The mark [13] stands for this setting: stirred in ethanol for 2-4 days.

Where a name gives a salt, the structure may show the parent alone. Read-outs that look alike come from different tables or passages of the source.

For the compound `COc1cc2nccc(Oc3ccc(NC(=O)NC4CC4)c(Cl)c3F)c2cc1C(N)=O` [crystalline form I of fluvatinib mesylate] [fluvatinib methanesulfonate], in data set [1], the “change of content of related impurities / related substances” value is on record as “no apparent change” and the crystal transformation entry was “did not show crystal transformation”. The “crystal transformation under high temperature and high humidity conditions” value in data set [2] is listed as “did not undergo crystal transformation”. Moreover, in data set [3], the “crystal transformation during the process of preparing tablets” value is reported as “neither the crystalline form I of fluvatinib mesylate nor the crystalline form III of fluvatinib mesylate undergoes crystal transformation” and the “crystal transformation after the tablets being placed for 6 months” value is “no crystal transformation occurred”. The “crystal transformation in single solvent” value in [4] is reported as “maintained its form”. Also, in data set [5] (25° C./80% RH), the hygroscopic weight gain was determined as 1.3%. Further, the “crystal transformation after DVS measurements” value in data set [5] (XRPD before and after DVS) is reported as “did not undergo crystal transformation”.

Regarding `COc1cc2nccc(Oc3ccc(NC(=O)NC4CC4)c(Cl)c3F)c2cc1C(N)=O` [crystalline form I of fluvatinib, 4-(2-fluoro-3-chloro-(cyclopropylaminocarbonyl)aminophenoxy)-7-methoxy-6-quinolinecarboxamide], in [1] (setting [11]), the “change of content of related impurities / related substances” value is “no change”. For the same compound, the crystal transformation result in data set [1] (setting [11]) is reported as “no occurrence of crystal transformation”. Besides, the “crystalline form after stirring for 2 days” value in data set [6] (THF 0.4 mL), in data set [6] (THF-water (1:1) 0.4 mL), in [6] (acetone 0.4 mL), in [6] (acetone-water (1:2) 0.4 mL), in data set [6] (ethanol 0.4 mL) and in data set [6] (ethanol-water (3:1) 0.4 mL) was “Form I” in each case. Moreover, the “crystalline form after stirring for 2 days” value in data set [6] (ethyl acetate 0.4 mL), in [6] (isopropanol 0.4 mL), in data set [6] (isopropanol-water (1:1) 0.4 mL), in data set [6] (methanol 0.4 mL) and in [6] (methanol-water (3:1) 0.4 mL) was “Form I” throughout.

For `COc1cc2nccc(Oc3ccc(NC(=O)NC4CC4)c(Cl)c3F)c2cc1C(N)=O` [crystalline form II of fluvatinib mesylate] [fluvatinib methanesulfonate], the “crystal transformation in ethanol” value is “converted to Form III” in [7] (setting [12]) and “transformed into the crystalline form III” in [7] (setting [13]).

As for `COc1cc2nccc(Oc3ccc(NC(=O)NC4CC4)c(Cl)c3F)c2cc1C(N)=O` [crystalline form III of fluvatinib mesylate] [fluvatinib methanesulfonate], the “change of content of related impurities / related substances” value in data set [1] is listed as “no apparent change”. Besides, the crystal transformation result in data set [1] is given as “did not show crystal transformation”. Further, in data set [8], the solubility entry was “better than that of lenvatinib”. Further, the “crystal transformation under high temperature and high humidity conditions” value in data set [2] is “did not undergo crystal transformation”. The “crystal transformation in ethanol” value in data set [7] (setting [12]) and in [7] (setting [13]) was “did not undergo crystal transformation” in each case. For the same compound, in data set [3], the “crystal transformation during the process of preparing tablets” value is “neither the crystalline form I of fluvatinib mesylate nor the crystalline form III of fluvatinib mesylate undergoes crystal transformation”. Also, in [3], the “crystal transformation after the tablets being placed for 6 months” value is listed as “no crystal transformation occurred”. Also, the XRD results in data set [9] (1.4-dioxane 1 mL), in [9] (acetone 1 mL), in data set [9] (acetonitrile 1 mL), in data set [9] (cyclohexane 1 mL), in [9] (dichloromethane 1 mL) and in data set [9] (ethanol 1 mL) was “Form III” throughout. Also, the XRD results in [9] (ethyl acetate 1 mL), in data set [9] (isopropanol 1 mL), in [9] (n-heptane 1 mL), in data set [9] (n-hexane 1 mL) and in [9] (tetrahydrofuran 1 mL) was “Form III” in each case. This compound also showed a hygroscopic weight in [5] (25° C., 0-90% RH) of 0.44%. Moreover, the “Stability data in oxygen gas, oxidation” value in data set [10] (20-30° C., 0 hour) came to 93.66%; in data set [10] (20-30° C., 24 hours), 94.10%; in [10] (60° C., 0 hour), 93.61%; in [10] (60° C., 24 hours), 94.00%.

As to `COc1cc2nccc(Oc3ccc(NC(=O)NC4CC4)c(Cl)c3F)c2cc1C(N)=O` [crystalline form V of fluvatinib mesylate] [fluvatinib methanesulfonate], the “crystal transformation under high temperature and high humidity conditions” value in data set [2] was “undergone crystal transformation”.

With `COc1cc2nccc(Oc3ccc(NC(=O)NC4CC4)c(Cl)c3F)c2cc1C(N)=O` [crystalline form VI of fluvatinib mesylate] [fluvatinib methanesulfonate], the “crystal transformation under high temperature and high humidity conditions” value in [2] is recorded as “undergone crystal transformation”. Moreover, the results for the “crystal transformation in ethanol” value in data set [7] (setting [12]) and in [7] (setting [13]) were “converted to Form III” and “transformed into the crystalline form III”, respectively.

With `COc1cc2nccc(Oc3ccc(NC(=O)NC4CC4)c(Cl)c3F)c2cc1C(N)=O` [crystalline form VII of fluvatinib mesylate] [fluvatinib methanesulfonate], the “crystal transformation under high temperature and high humidity conditions” value in data set [2] is “undergone crystal transformation”. The entries for the “crystal transformation in ethanol” value in data set [7] (setting [12]) and in data set [7] (setting [13]) were “converted to Form III” and “transformed into the crystalline form III”, respectively.
